{
  "source": "patent US8658188B2",
  "about": "“Radio-opaque bioactive glass materials” (Universitat Zurich, priority 2009, dated 2014)",
  "assay": "Radiopacity assessment against an aluminum step wedge",
  "type": "physicochemical",
  "conditions": "paste in 0.9 wt % NaCl saline, 60% weight to volume, 1 mm thick, X-ray 65 kV, n=3",
  "excerpt": "According to Waltimo et al., 2009, J Dent Res, 88, 235-8, the amount of bioactive particles per volume plays an important role in the closed environment of a root canal. To achieve a denser packing of the naturally relatively light nanomaterial (low-density powder with snow-like behaviour), uniaxial pressure of 2.6 MPa was applied for 30 seconds. […] The thus improved filler was compared to classical (flame derived) bioactive particles (no bismuth), to mechanical mixtures of bioactive particles and barium sulphate (50/wt %) and bismuth oxide (80/20 wt %; 50/50 wt %). Calcium hydroxide with or without additional barium sulphate was used as commercially available control material. Bovine dentine slices with a thickness of 1 mm served as control for the clear distinction between material and the surrounding tissue in clinical situations. Prior to use, the corresponding powder was homogeneously mixed with unbuffered physiological saline (0.9 wt % NaCl) to obtain a final weight to volume ratio of 60% (plastic limit, i.e. the maximum amount of powder per liquid to yield a paste-like suspension). A radiograph was taken after preparing the paste and placing it in a polycarbonate mould (10 mm diameter, 1 mm thick). Specimens were placed on a radio-graphic film (Digora, Finland) together with an aluminum step-wedge with a variable thickness from 0.5 mm to 6 mm (0.5 mm and 1 mm increments). […]",
  "data": [
    {"smiles": "[Ca+2].[OH-].[OH-]", "note": "[calcium hydroxide, Calcium hydroxide]", "values": [
      {"measurement": "aluminum equivalent (radiopacity)", "value": 0.6, "unit": "mm"}
    ]}
  ]
}
